The values that follow come from patent US6897316B2, “Substituted 2-phenyl-4-quinolone-3-carboxylic acid compounds and their use as antitumor agents” (China Medical University, priority 2003, dated 2005).

Converted amounts (≈) assume the structure as drawn. Some results are limits rather than exact numbers.

Series [1] relates to lung cancer cell line (A-549). The series is described as follows: Preliminary cytotoxicity screening against lung cancer cell line A-549 (SRB assay). In kind it is cell-based, human. The following applies: for ED50 (cytotoxicity against A-549): 50% reduction in absorbance at 562 nm, Table 2 (tromethamine salts X); for ED50 (cytotoxicity against A-549) / IC50: SRB assay, A-549; for IC50: Homo sapiens, A549, 50% reduction in absorbance at 562 nm relative to untreated cells, Table 1 (esters VII, acids IX), read-out: ED50 (cytotoxicity against A-549). As to the method:
(§1) Compounds were assayed for in vitro cytotoxicity in a panel of human tumor cell lines at the School of Pharmacy, University of North Carolina at Chapel Hill, according to procedures described previously [Lee, K. H., Lin, Y. M., Wu, T. S., Zhang, D. C., Yamagishi, T., Hayashi, T., Hall, I. H., Chang, J. J., Wu, R. Y., Yang, T. H. The cytotoxic principles of Prunella vulgaris, Psychotria serpens, and Hyptis capitata: Ursolic acid and related derivatives. Planta Med. 1988, 54, 308-11; Boyd, M. R. Status of the National Cancer Institute preclinical antitumor drug discovery screen: implications for selection of new agents for clinical trial. Devita, V. T., Jr. Hellman, S., Rosenberg, S. A., Eds, J. B. Cancer: Principles and Practice of Oncology Update, 1989, 3: pp1-12, Lippincoft: Philadephia; Monks, A., Scudiero, D., Skehan, P., Shoemaker, R., Paull, K., Vistica, D., Hose, C., Langley, J., Cronise, P., Vaigro-Wolff, A., Gray-Goodrich, M., Campbell, H., Mayo, J., Boyd, M. Feasibility of a high-flux anticancer drug screen using a diverse panel of cultured human tumor cell lines. J. Natl. Cancer Inst. 1991, 83, 757-66.] The cell lines included human ovarian cancer (1A9), ileocecal carcinoma (HCT-8), lung carcinoma (A-549), glioblastoma (U-87-MG), bone (HOS), epidermoid carcinoma of the naynx (KB), P-gp-expressing epidermoid carcinoma of the nasopharynx (KB-VIN), and melanoma (SKMEL-2) cell line. The cytotoxic effects of each compound were obtained as EC50 values, which represent the molar drug concentrations required to cause 50% inhibition.
Preliminary screening of antitumor activity was based on the cytotoxicity tested in human long cancer (A-549) cell lines. […] Among 3-carboxylic acid derivatives (IX), the cytotoxicity was not remarkable when the m-position of 2-phenyl group was substituted by OCH3 group (IX-3, 7, 11). ED50 values were greater than 20 μg/mL. […] The antitumor activity was not good, if there was no substitution on the m-position of 2-phenyl group ([…]).
On the technique in general: The SRB assay estimates cell density from bound dye.

The subject of series [2] is melanoma (SK-MEL-2) cell line. The series is described as follows: Activity against HTCL replication, SK-MEL-2. In kind it is cell-based, human. The following applies: mean ED50. How it is done: as §1, with “The cell lines included human ovarian cancer (1A9), ileocecal carcinoma (HCT-8), lung carcinoma (A-549), glioblastoma (U-87-MG), bone (HOS), epidermoid carcinoma of the naynx (KB), P-gp-expressing epidermoid carcinoma of the nasopharynx (KB-VIN), and melanoma (SKMEL-2) cell line. The cytotoxic effects of each compound were obtained as EC50 values, which represent the molar drug concentrations required to cause 50% inhibition.” left out

Series [3] relates to human ovarian cancer (IA9) cell line. As to the kind of experiment: Activity against HTCL replication, IA9. In kind it is cell-based. To be noted: ovarian cancer IA9; mean ED50. How it is done: as §1
Antitumor activity of compounds IX-8 and X-8 was further tested on the following 8 cancer cell lines: CAKI, HOS, KB, KB-VIN, SK-MEL-2, U87-MG, HCT-8 and IA9. […] It is worth mentioning that these two compounds were quite active against human ovarian cancer cells (IA9), which were known to have a high level of drug resistant P-glycoprotein. IC50 of compound IX-8 against these cancer cells is only 0.03 μg/mL. Thus, this compound is really worth developing, particular against drug resistant ovarian cancer.

In series [4] the test system is glioblastoma (U87-MG) cell line. The series is described as follows: Activity against HTCL replication, U87-MG. In kind it is cell-based, human. The following applies: mean ED50. How it is done:
as §1, with “The cell lines included human ovarian cancer (1A9), ileocecal carcinoma (HCT-8), lung carcinoma (A-549), glioblastoma (U-87-MG), bone (HOS), epidermoid carcinoma of the naynx (KB), P-gp-expressing epidermoid carcinoma of the nasopharynx (KB-VIN), and melanoma (SKMEL-2) cell line. The cytotoxic effects of each compound were obtained as EC50 values, which represent the molar drug concentrations required to cause 50% inhibition.” left out

For series [5], the system named is ileocecal carcinoma (HCT-8) cell line. The series is described as follows: Activity against HTCL replication, HCT-8. In kind it is cell-based, human. The following applies: mean ED50. As to the method: as §1, with “The cell lines included human ovarian cancer (1A9), ileocecal carcinoma (HCT-8), lung carcinoma (A-549), glioblastoma (U-87-MG), bone (HOS), epidermoid carcinoma of the naynx (KB), P-gp-expressing epidermoid carcinoma of the nasopharynx (KB-VIN), and melanoma (SKMEL-2) cell line. The cytotoxic effects of each compound were obtained as EC50 values, which represent the molar drug concentrations required to cause 50% inhibition.” left out

For series [6], the system named is bone (HOS) cell line. The series is described as follows: Activity against HTCL replication, HOS. The following applies: mean ED50. In kind it is cell-based, human. As to the method:
as §1, with “The cell lines included human ovarian cancer (1A9), ileocecal carcinoma (HCT-8), lung carcinoma (A-549), glioblastoma (U-87-MG), bone (HOS), epidermoid carcinoma of the naynx (KB), P-gp-expressing epidermoid carcinoma of the nasopharynx (KB-VIN), and melanoma (SKMEL-2) cell line. The cytotoxic effects of each compound were obtained as EC50 values, which represent the molar drug concentrations required to cause 50% inhibition.” left out

With “6-Methoxy-2-phenyl-4-quinolone-3-carboxylic acid tromethamine salt [Compound X-11]”, the “ED50 (cytotoxicity against A-549)” value in series [1] is above 20 µg/mL.

As to `NC(CO)(CO)CO.O=C(O)c1c(-c2cccc(Cl)c2)[nH]c2ccc(F)cc2c1=O` [Compound X-1, 3′-Chloro-6-fluoro-2-phenyl-4-quinolone-3-carboxylic acid tromethamine salt], in series [1], the “ED50 (cytotoxicity against A-549)” value was determined as 17.6 µg/mL.

`NC(CO)(CO)CO.O=C(O)c1c(-c2cccc(F)c2)[nH]c2ccc(F)cc2c1=O` [Compound X-2, 3′,6-Difluoro-2-phenyl-4-quinolone-3-carboxylic acid tromethamine salt]: the “ED50 (cytotoxicity against A-549)” value in series [1] is 4.3 µg/mL.

With `NC(CO)(CO)CO.O=C(O)c1c(-c2cccc(F)c2)[nH]c2ccc(Cl)cc2c1=O` [Compound X-5, 3′-Fluoro-6-chloro-2-phenyl-4-quinolone-3-carboxylic acid tromethamine salt], the “ED50 (cytotoxicity against A-549)” value in series [1] was determined as 10.9 µg/mL.

Turning to `NC(CO)(CO)CO.O=C(O)c1c(-c2cccc(Cl)c2)[nH]c2ccc(Cl)cc2c1=O` [Compound X-6, 3′,6-Dichloro-2-phenyl-4-quinolone-3-carboxylic acid tromethamine salt], the “ED50 (cytotoxicity against A-549)” value in series [1] was above 20 µg/mL.

In the case of `COc1cccc(-c2[nH]c3ccc(Cl)cc3c(=O)c2C(=O)O)c1.NC(CO)(CO)CO` [Compound X-7, 3′-Methoxy-6-chloro-2-phenyl-4-quinolone-3-carboxylic acid tromethamine salt], the “ED50 (cytotoxicity against A-549)” value in series [1] is above 20 µg/mL.

Consider `COc1ccc2[nH]c(-c3cccc(F)c3)c(C(=O)O)c(=O)c2c1.NC(CO)(CO)CO` [Compound X-8, 3′-Fluoro-6-methoxy-2-phenyl-4-quinolone-3-carboxylic acid tromethamine salt], for which, in series [2], the “ED50 SK-MEL-2” value turned out to be 2.0 µg/mL. For the same compound, in series [1], the “ED50 (cytotoxicity against A-549)” value is 2.4 µg/mL. For the same compound, the “ED50 IA9” value in series [3] came to 0.88 µg/mL. The “ED50 U87-MG” value in series [4] amounted to 5.0 µg/mL. The “ED50 HCT-8” value in series [5] was found to be 1.20 µg/mL. Further, in series [6], the “ED50 HOS” value stood at 5.0 µg/mL.

In the case of `COc1ccc2[nH]c(-c3cccc(Cl)c3)c(C(=O)O)c(=O)c2c1.NC(CO)(CO)CO` [Compound X-9, 3′-Chloro-6-methoxy-2-phenyl-4-quinolone-3-carboxylic acid tromethamine salt], in series [1], the “ED50 (cytotoxicity against A-549)” value stood at 17.6 µg/mL.

`O=C(O)c1c(-c2cccc(Cl)c2)[nH]c2ccc(F)cc2c1=O` [IX-1, 3′-Chloro-6-fluoro-2-phenyl-4-quinolone-3-carboxylic acid]: the IC50 in series [1] was determined as 20 µg/mL (≈ 63 µM).

Regarding `O=C(O)c1c(-c2cccc(F)c2)[nH]c2ccc(F)cc2c1=O` [IX-2, 3′,6-Difluoro-2-phenyl-4-quinolone-3-carboxylic acid], the melting point is 272 °C (dec.). The IC50 in series [1] is 0.5 µg/mL (≈ 1.66 µM).

For `COc1cccc(-c2[nH]c3ccc(F)cc3c(=O)c2C(=O)O)c1` [IX-3, 6-Fluoro-3′-methoxy-2-phenyl-4-quinolone-3-carboxylic acid], the melting point is 231 °C. Also, the IC50 in series [1] is above 20 µg/mL.

Compound `O=C(O)C1C(=O)c2cc(F)ccc2N=C1c1ccccc1` (centres unmarked) [IX-4, 6-Fluoro-2-phenyl-4-quinolone-3-carboxylic acid] gave a melting point of 297 °C.

`O=C(O)c1c(-c2cccc(F)c2)[nH]c2ccc(Cl)cc2c1=O` [IX-5, 3′-Fluoro-6-chloro-2-phenyl-4-quinolone-3-carboxylic acid] displayed a melting point above 300 °C. Further, in series [1], the IC50 came out at 1.8 µg/mL (≈ 5.67 µM).

For `O=C(O)c1c(-c2cccc(Cl)c2)[nH]c2ccc(Cl)cc2c1=O` [IX-6, 3′,6-Dichloro-2-phenyl-4-quinolone-3-carboxylic acid], the melting point was 260 °C (dec.). In addition, the IC50 in series [1] was above 20 µg/mL.

Consider `COc1cccc(-c2[nH]c3ccc(Cl)cc3c(=O)c2C(=O)O)c1` [IX-7, 3′-Methoxy-6-chloro-2-phenyl-4-quinolone-3-carboxylic acid], for which the melting point was 243 °C (dec.). Moreover, in series [1], the IC50 was above 20 µg/mL.

With `COc1ccc2[nH]c(-c3cccc(Cl)c3)c(C(=O)O)c(=O)c2c1` [IX-9, 3′-Chloro-6-methoxy-2-phenyl-4-quinolone-3-carboxylic acid], the melting point is 223 °C (dec.). For the same compound, in series [1], the IC50 is 20 µg/mL (≈ 60.7 µM).

In turn, `COc1cccc(-c2[nH]c3ccc(OC)cc3c(=O)c2C(=O)O)c1` [IX-10, 3′,6-Dimethoxy-2-phenyl-4-quinolone-3-carboxylic acid] came in with a melting point above 300 °C. Besides, the IC50 in series [1] was above 20 µg/mL.

The compound `COc1ccc2c(c1)C(=O)C(C(=O)O)C(c1ccccc1)=N2` (centres unmarked) [IX-11, 6-Methoxy-2-phenyl-4-quinolone-3-carboxylic acid] registered a melting point above 300 °C. In addition, in series [1] (A-549, preliminary screening), the “cytotoxicity / antitumor activity in words” value is “not good”. Moreover, the IC50 in series [1] was above 20 µg/mL.

For `O=C(O)C1C(=O)c2cc(Cl)ccc2N=C1c1ccccc1` (centres unmarked) [IX-15, 6-Chloro-2-phenyl-4-quinolone-3-carboxylic acid], the melting point is 254.2 to 255.6 °C (dec.).

Take `O=C(O)C1C(=O)c2cc3c(cc2N=C1c1ccccc1)OCO3` (centres unmarked) [IX-22, 6,7-Methylenedioxy-2-phenyl-4-quinolone-3-carboxylic acid]: the melting point was 267.5 to 269.2 °C (dec.).

Regarding `CCOC(=O)c1c(-c2cccc(F)c2)[nH]c2ccc(Cl)cc2c1=O` [VII-5, Ethyl 3′-fluoro-6-chloro-2-phenyl-4-quinolone-3-carboxylate], the IC50 in series [1] is above 20 µg/mL.

As for `CCOC(=O)c1c(-c2cccc(OC)c2)[nH]c2ccc(Cl)cc2c1=O` [VII-7, Ethyl 3′-methoxy-6-chloro-2-phenyl-4-quinolone-3-carboxylate], the IC50 in series [1] is above 20 µg/mL.

For `CCOC(=O)c1c(-c2cccc(Cl)c2)[nH]c2ccc(OC)cc2c1=O` [VII-9, Ethyl 3′-chloro-6-methoxy-2-phenyl-4-quinolone-3-carboxylate], the IC50 in series [1] was above 20 µg/mL.

`CCOC(=O)c1c(-c2cccc(OC)c2)[nH]c2ccc(OC)cc2c1=O` [VII-10, Ethyl 3′,6-dimethoxy-2-phenyl-4-quinolone-3-carboxylate]: the IC50 in series [1] is above 20 µg/mL.

What is called melting point is the temperature of the solid-liquid transition.
